According to patent US12195460B2, “Pyrido-[3,4-d]pyridazine amine derivatives useful as NLRP3 inhibitors” (Ventus Therapeutics U.S., Inc., priority 2022, dated 2025):

Assay: Brain levels (Kp and Kpu,u) in mice after oral administration
Format: in vivo, CDI mice
Details: 20 mpk PO; for kpu, u: kp corrected with mouse plasma protein binding and mouse brain homogenate binding; for Kp at 24 h: CDI, mouse, 20 mg/kg, whole brain AUC over 24 h divided by plasma AUC
Procedure: Brain Levels (Kp and Kpu,u)—NLRP3
The in vivo total brain to plasma ratio was assessed in CDI mice after oral administration of the compound. Blood was collected at several timepoints up to 24 h, and transferred into plastic micro centrifuge tubes with EDTA-K2 as anticoagulant. Blood samples were centrifuged at 4000 g for 5 minutes at 4° C. to obtain plasma, then immediately frozen and stored at −75±15° C. prior to analysis. Animals were terminally anaesthetized with a rising concentration of CO2 gas at about 1 minute. At selected timepoints, whole brains were removed from the skull, rinsed in cold PBS to remove blood, dried with clean gauze, then frozen in liquid nitrogen and kept at −75±15° C. before analysis. At the time of analysis, brain samples were homogenized with PBS by tissue weight (g) to PBS volume (mL) ratio 1:3. Plasma and brain drug levels were quantified by LC/MS/MS on a AB Sciex Triple Quad 5500+ instrument, after separation on a HALO 160A ES-C18, 2.7 μm 2.1×50 mm column. Quantitation was performed using a calibration curve prepared in blank plasma or blank brain homogenate. The software WinNonlin (Phoenix™) was used for pharmacokinetic analysis from the concentrations versus time data, including the AUCinf and AUClast. The Kp ratio (total brain concentration over total plasma concentration) was calculated as (AUCtot,hr)/(AUCtot,pl).
The unbound brain exposure was assessed as Kpuu, which is the free brain/free plasma concentration ratio (Cu,hr/Cu,pl). The Cu,bt/Cu,pl ratios were obtained from in vivo total brain to plasma ratios (Ctot,br/Ctot,pl) by using in vitro determined Fu,br and Fu,pl.
Plasma protein binding and brain homogenate protein binding were measured by equilibrium dialysis in a HTDialysis plate. The dialysis membranes were soaked in ultrapure water for 60 minutes to separate strips, then in 20% ethanol for 20 minutes, finally in dialysis buffer for 20 minutes. The dialysis set up was assembled according to the manufacturer's instruction. Each cell received 150 μL of plasma or brain homogenate spiked with 1 μM of compound, and dialyzed against an equal volume of dialysis buffer (PBS). The dialysis plate was sealed and incubated in an incubator at 37° C. with 5% CO2 at 100 rpm for 6 hours. At the end of incubation, compound concentration was measured in both chambers by LC-MS/MS on a Triple Quad™ 5500 from AB Inc after separation on a XSelect Hss T3 2.5μ (2.1×30 mm) column. Free fraction (Fu) was calculated as (Peak Area Ratio buffer chamber/Peak Area Ratio plasma chamber).
Finally, Kpuu was calculated as (AUCtot,br×Fu,bt)/(AUCtot,pl×Fu,pl).
Table 3 assigns each compound a code for kp and kpu,u values: A or B. According to the code, A represents a value of >0.3 and B represents a value of <0.3. […] The kpu,u was then calculated upon correcting this kp value with mouse plasma protein binding and mouse brain homogenates binding.

| kpu, u | Kp at 24 h | Structure (SMILES) |
| --- | --- | --- |
| A (A represents a value of >0.3) | – | CN1CCO[C@@H](CNc2nnc(-c3ccc(C(F)(F)F)cc3O)c3ccncc23)C1 [Compound 6, (S)-2-(4-(((4-methylmorpholin-2-yl)methyl)amino)pyrido[3,4-d]pyridazin-1-yl)-5-(trifluoromethyl)phenol] |
| B (B represents a value of <0.3) | – | Oc1cc(Cl)ccc1-c1nnc(N[C@H]2CCOC2)c2cnccc12 [Compound 7, (S)-5-chloro-2-(4-((tetrahydrofuran-3-yl)amino)pyrido[3,4-d]pyridazin-1-yl)phenol, reference compound] |
| B (B represents a value of <0.3) | < 0.3 | OCC1(CNc2nnc(-c3ccc(Cl)cc3O)c3ccncc23)CC1 [Compound 8, 5-chloro-2-(4-(((1-(hydroxymethyl)cyclopropyl)methyl)amino)pyrido[3,4-d]pyridazin-1-yl)phenol, reference compound] |
| A (A represents a value of >0.3) | – | CC1(C)COC[C@@H]1Nc1nnc(-c2ccc(Cl)cc2O)c2ccncc12 [Compound 1, (R)-5-chloro-2-(4-((4,4-dimethyltetrahydrofuran-3-yl)amino)pyrido[3,4-d]pyridazin-1-yl)phenol] |
| A (A represents a value of >0.3) | > 0.3 | CC1(C)COCC[C@H]1Nc1nnc(-c2ccc(Cl)cc2O)c2ccncc12 [Compound 3, (R)-5-chloro-2-(4-((3,3-dimethyltetrahydro-2H-pyran-4-yl)amino)pyrido[3,4-d]pyridazin-1-yl)phenol] |
| A (A represents a value of >0.3) | – | CC1(C)C[C@@H](Nc2nnc(-c3ccc(Cl)cc3O)c3ccncc23)CCO1 [Compound 4, (S)-5-chloro-2-(4-((2,2-dimethyltetrahydro-2H-pyran-4-yl)amino)pyrido[3,4-d]pyridazin-1-yl)phenol] |
| A (A represents a value of >0.3) | > 0.3 | [2H]C([2H])([2H])OC(C)(C)CNc1nnc(-c2ccc(C(F)F)cc2O)c2ccncc12 [Compound 2, 5-(difluoromethyl)-2-(4-((2-(methoxy-d3)-2-methylpropyl)amino)pyrido[3,4-d]pyridazin-1-yl)phenol] |
| A (A represents a value of >0.3) | > 0.3 | Cc1ccc(-c2nnc(N[C@H]3COC(C)(C)C3)c3cnccc23)c(O)c1 [Compound 5, (R)-2-(4-((5,5-dimethyltetrahydrofuran-3-yl)amino)pyrido[3,4-d]pyridazin-1-yl)-5-methylphenol] |
